Assay results reported in US20180178043A1, “FOCUSTED ULTRASOUND HYPERTHERMIA” (KING'S COLLEGE LONDON, priority 2015, published 2018).
Several values for one entry are separate records, joined by “and”; a condition that tells them apart may be missing. Identical values can stand only once. Each block holds one compound with its values, some of them ahead of it.

Key:
[1] = 7T MRI T1/T2 assessment of liposome samples and controls; type: physicochemical; set-up: r1 (relaxometry value): unit not given here; conditions: for T1 (s) 1param / T1 (s) 3param / T1 (s) ImageJ / T2 (s) 1param / T2 (s) ImageJ / T2 (s) 3param: 7 T
Source text: A series of MRI T1/T2 assessment studies have been carried out using a 7 T pre-clinical MRI scanner, with the assistance of Dr Po-Wah So (James Black Centre, KCL). The focus here has been to derive reliable r1/r2 relaxivities per molar Gd(III) for liposome produced using the [Gd]DOTA.DSA, [Gd]DOTA.Ahx.DSA and [Gd]DOTA.Aoc.DSA. This is reliant on both accurate measurements of the T1/T2 effects and also the exact gadolinium concentration in the prepared liposome suspensions. The extrusion and gel filtration processes make this latter hard to estimate, so Inductively Coupled Plasma Mass Spectrometry (ICP-MS) quantification is being assessed. This is turn required testing of suitable acid digestion conditions since the lipid-chelates may not be analysed directly. For both MRI and ICP-MS, commercial Gadovist is being used a positive control contrast agent of known Gd content. Assessment of temperature, buffer salt and liposome size effects on T1/T2 are also underway.
FIGS. 22 and 23 show Example T1 and T2 brightness traces for controls and liposome samples.
Comparison of liposomes containing different lipids as measured at 7T Magnet*.

[2] = Pharmacokinetics of topotecan in blood, quantification by HPLC; type: in vivo, Balb C Mice
Experimental: Balb C Mice were injected with IgFUS-TNPs encapsulating topotecan (8 mg/kg per mouse body weight) and drug pharmacokinetics monitored by blood sample analyses. Blood samples (50-100 μL) were collected at time intervals (2 min-4 h) and transferred into pre-weighed plastic vials containing heparin (5 uL). Cold methanol (100 μL) was added to each and the mixed samples stored over dry ice or at −20° C. until required. After thawing, each vial was weighed again and the difference used to estimate then original sample volume. […] Batches of 5 samples were analysed three times using an Agilent 1100 HPLC equipped with a cooled sample chamber (8-12° C.), a guarded Thermo Hypersil 30×4.6 mm, 5 μm C18 column, a Diode Array Detector (UV/vis absorbance) and an Agilent 1260 Infinity fluorescence detector. […] Detection was by absorbance (210/254/280 nm for proteins and other biologicals; 380 nm for topotecan; all using a bandwidth of 8 nm c.p. reference at 700 nm) and fluorescence (Ex 400 nm; Em 545 nm; PMT-gain 18). Injections were 5-20 μL depending on the sample concentrations and quantifications were calculated from the fluorescence peak areas after calibration (the detector response was effectively linear over the sensitive range). Topotecan could be reliably identified even at extremely low concentrations (10-20 ng/mL) by its intrinsic fluorescence and retention time (3.33±0.03 min; N=45). […]

[3] = 19.6 °C, conc >0.3 mM, dil not given
[4] = 19.6 °C, dil 1 (liposomes 20 mg/mL; Gadovist 3.1 or 3 mM), Gadovist 3 mM
[5] = 19.6 °C, dil 1 (liposomes 20 mg/mL; Gadovist 3.1 or 3 mM), Gadovist 3.1 mM
[6] = 35.5 °C, conc >0.3 mM, dil not given

T1 (s) 1param [1, 3]: 2.033 s
T1 (s) 3param [1, 3]: 2.061 s
T1 (s) ImageJ [1, 3]: 2.061 s
T2 (s) 1param [1, 3]: 0.206 s
T2 (s) ImageJ [1, 3]: 0.1 s
T1 (s) 1param [1, 4]: 0.09174 s
T1 (s) 3param [1, 4]: 0.07712 s
T1 (s) ImageJ [1, 4]: 0.092 s
T2 (s) 1param [1, 4]: 0.04691 s
T2 (s) 3param [1, 4]: 0.0488 s
T2 (s) ImageJ [1, 4]: 0.047 s
T1 (s) 1param [1, 5]: 0.072 s
T1 (s) 3param [1, 5]: 0.084 s
T1 (s) ImageJ [1, 5]: 0.084 s
T2 (s) 1param [1, 5]: 0.0431 s and 0.0426 s
T2 (s) 3param [1, 5]: 0.0422 s and 0.0419 s
T2 (s) ImageJ [1, 5]: 0.042 s
T1 (s) 1param [1, 6]: 2.602 s
T1 (s) 3param [1, 6]: 2.617 s
T1 (s) ImageJ [1, 6]: 2.606 s
T2 (s) 1param [1, 6]: 0.153 s
T2 (s) ImageJ [1, 6]: 0.1 s
T1 (s) 1param ([1]; 39.5 °C, dil 1 (Gadovist 3 mM)): 0.1297 s
T1 (s) 3param ([1]; 39.5 °C, dil 1 (Gadovist 3 mM)): 0.1138 s
T1 (s) ImageJ ([1]; 39.5 °C, dil 1 (Gadovist 3 mM)): 0.13 s
T2 (s) 1param ([1]; 39.5 °C, dil 1 (Gadovist 3 mM)): 0.05335 s
T2 (s) 3param ([1]; 39.5 °C, dil 1 (Gadovist 3 mM)): 0.05578 s
T2 (s) ImageJ ([1]; 39.5 °C, dil 1 (Gadovist 3 mM)): 0.053 s
r1 (relaxometry value) ([1]; measured at 7T Magnet): 4.8
SMILES: O=C([O-])CN1CCN(CC(=O)[O-])CCN([C@H](CO)[C@H](O)CO)CCN(CC(=O)[O-])CC1.[Gd+3] (racemic) [Gadovist]

clearance of topotecan from the blood pool ([2]; i.v. tail vein, matched concentration, followed 4 h): cleared from the blood pool in mins
fraction unbound ([2]; mouse, 'spiked' blood samples, previous results, read-out: loss of topotecan due to protein binding): 0.8 to 0.85
SMILES: CC[C@@]1(O)C(=O)OCc2c1cc1n(c2=O)Cc2cc3c(CN(C)C)c(O)ccc3nc2-1 [free topotecan, topotecan]
